Laboratory results: patent US20210315893A1 (Galapagos NV, priority 2017, published 2021)

Columns and labels:
[1] = target: T1, human GPCR sphingosine 1-phosphate receptor 2 (Homo sapiens, UniProt O95136); test: S1PR2 antagonist Ca2+ flux assay; type: cell-based; conditions: antagonist mode, CHO-S1PR2 cells, S1P at EC80, Ca2+ fluorescence; read-out: S1P2 EC50 (nM), S1P2 antagonist EC50
T1 construct: host or cells: CHO
Method in brief: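 CHO cells stably expressing human S1PR2, serum-starved 1 h, Fluo8-loaded; compound-evoked Ca2+ fluorescence read 3 min (agonist mode), then after 15 min S1P at EC80 added and read 3 min (antagonist mode). Max/baseline fluorescence ratios normalised to vehicle and S1P EC100 or EC50 controls; EC50 derived.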

S1PR2 = target: T2, S1PR2 (Homo sapiens, UniProt O95136); test: S1PR2 binding assay (competition with radioactively labeled S1P, SpA); conditions: membranes from stable cell line over expressing S1PR2, SpA beads; read-out: S1P2 EC50 (nM), S1PR2 binding EC50
T2 construct: expressed in transfected cells
Method in brief: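 Competition with [3H]S1P for membranes from a stable S1PR2-overexpressing cell line, 20 μg/well, captured on PVT-WGA SPA beads, in 20 mM Tris pH 7.5, 10 mM MgCl2, 100 mM NaCl, 0.4% fatty-acid-free BSA, 1 mM Na3VO4. 2 h at room temperature, then centrifugation and scintillation counting.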

HFL-1 cells [2] = test: IL-8 production assay (S1P induced IL-8); type: cell-based; conditions: Homo sapiens, HFL1; S1P (1 μM) induced IL-8 in HFL-1 cells, starvation medium without HSA; read-out: IL8 EC50
Method in brief: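 HFL-1 human fetal lung fibroblasts were starved in F12K/1% FBS, then given compound for 1 h (10-point, 1/3 dilution, 30 μM top, 0.3% DMSO final). S1P was added at 1 μM final for 16–24 h at 37 °C, and secreted IL-8 in supernatant quantified by ELISA.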

HFL-1 cells [3] = test: IL8 assay in the presence of Human Serum Albumin; conditions: HFL1, read-out: HSA IL8 EC50

T1 sequence (O95136 whole entry): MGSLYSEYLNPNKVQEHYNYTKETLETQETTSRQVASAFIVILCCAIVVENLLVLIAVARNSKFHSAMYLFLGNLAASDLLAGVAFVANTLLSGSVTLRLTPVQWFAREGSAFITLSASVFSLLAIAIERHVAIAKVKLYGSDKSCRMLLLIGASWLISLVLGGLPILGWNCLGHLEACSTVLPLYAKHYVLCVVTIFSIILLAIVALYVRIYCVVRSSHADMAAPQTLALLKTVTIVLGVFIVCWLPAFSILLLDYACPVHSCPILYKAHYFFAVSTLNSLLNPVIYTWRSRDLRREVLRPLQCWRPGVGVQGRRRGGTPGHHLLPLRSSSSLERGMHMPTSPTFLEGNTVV
T2 sequence (O95136 whole entry): as above

| SMILES | EC50 [1] [nM] | EC50 (S1PR2) [nM] | EC50 (HFL-1 cells [2]) [µM] | EC50 (HFL-1 cells [3]) [µM] |
| --- | --- | --- | --- | --- |
| N#Cc1cc2nc(Cc3nn(CC(=O)N4CCOCC4)c(=O)c4c3CCCC4)[nH]c2cc1OCC(F)(F)F [Compound 200, 2-[[3-(2-morpholino-2-oxo-ethyl)-4-oxo-5,6,7,8-tetrahydrophthalazin-1-yl]methyl]-6-(2,2,2-trifluoroethoxy)-1H-benzimidazole-5-carbonitrile] | 8.77 | 93.7 | 0.0106 | 0.103 |
| CCOc1cc2nc(Cc3nn(CC(=O)N4CCOCC4)c(=O)c4ccccc34)[nH]c2cc1F [Compound 157, 4-[(5-ethoxy-6-fluoro-1H-benzimidazol-2-yl)methyl]-2-(2-morpholino-2-oxo-ethyl)phthalazin-1-one] | 106 | 618 | 0.779 | 1.22 |
| O=c1c2ccccc2c(Cc2nc3cc(Cl)c(OC(F)(F)F)cc3[nH]2)nn1CC1CC1 [Compound 27, 4-[[6-chloro-5-(trifluoromethoxy)-1H-benzimidazol-2-yl]methyl]-2-(cyclopropylmethyl)phthalazin-1-one] | 868 | 3900 | 1.11 | 10 |
| COCCN(C)C(=O)Cn1nc(Cc2nc3cc(OCC(F)F)c(C#N)cc3[nH]2)c2ccccc2c1=O [Compound 183, 2-[4-[[6-cyano-5-(2,2-difluoroethoxy)-1H-benzimidazol-2-yl]methyl]-1-oxo-phthalazin-2-yl]-N-(2-methoxyethyl)-N-methyl-acetamide] | 76 | 307 | 0.196 | 0.43 |
| COCCNC(=O)Cn1nc(Cc2nc3cc(C#N)c(OCC(F)F)cc3[nH]2)c2ccccc2c1=O [Compound 187, 2-[4-[[5-cyano-6-(2,2-difluoroethoxy)-1H-benzimidazol-2-yl]methyl]-1-oxo-phthalazin-2-yl]-N-(2-methoxyethyl)acetamide] | 50.2 | 165 | 0.0745 | 0.0804 |
| O=C(O)Cc1nn(Cc2cc3cc(Cl)c(OCC4CC4)cc3[nH]2)c2ccccc2c1=O [compound 16, 2-[1-[[5-chloro-6-(cyclopropyl-methoxy)-1H-indol-2-yl]-methyl]-4-oxo-cinnolin-3-yl]-acetic acid] | 4.58 | 29.9 | 0.00849 | 0.0514 |
| N#Cc1cc2nc(Cc3nn(CC(=O)N4CCC(O)CC4)c(=O)c4ccccc34)[nH]c2cc1OCC(F)F [Compound 193, 6-(2,2-difluoroethoxy)-2-[[3-[2-(4-hydroxy-1-piperidyl)-2-oxo-ethyl]-4-oxo-phthalazin-1-yl]methyl]-1H-benzimidazole-5-carbonitrile] | 36.5 | 346 | 0.0497 | 0.183 |
| COc1ccc2c(=O)n(CC(=O)N3CCOCC3)nc(Cc3nc4cc(Cl)c(OCC(F)F)cc4[nH]3)c2c1 [Compound 30, 4-[[5-chloro-6-(2,2-difluoroethoxy)-1H-benzimidazol-2-yl]methyl]-6-methoxy-2-(2-morpholino-2-oxo-ethyl)phthalazin-1-one] | 9.47 | 93.3 | 0.0137 | 0.0745 |
| CC(C#N)CN(C)C(=O)Cn1nc(Cc2nc3cc(C#N)c(OCC(F)F)cc3[nH]2)c2ccccc2c1=O (centres unmarked) [Compound 195, 2-[4-[[5-cyano-6-(2,2-difluoroethoxy)-1H-benzimidazol-2-yl]methyl]-1-oxo-phthalazin-2-yl]-N-(2-cyanopropyl)-N-methyl-acetamide] | 31.9 | 197 | 0.0278 | 0.171 |
| O=c1c2ccccc2c(Cn2cc3cc(OCC4CC4)c(Cl)cc3n2)nn1C1CNC1 [compound 2, 2-(azetidin-3-yl)-4-[[6-chloro-5-(cyclopropyl-methoxy)indazol-2-yl]methyl]-phthalazin-1-one] | 81.6 | 75.7 | 0.0388 | 0.166 |
| O=C(O)Cc1nn(Cc2cn3cc(OCC4CC4)c(Cl)cc3n2)c2c(c1=O)CCCC2 [Compound 105, 2-[1-[[7-chloro-6-(cyclopropylmethoxy)imidazo[1,2-a]pyridin-2-yl]methyl]-4-oxo-5,6,7,8-tetrahydrocinnolin-3-yl]acetic acid] | 3.02 | 35.3 | 0.0106 | 0.11 |
| N#Cc1cc2nc(Cc3nn(CC(=O)NC[C@H](O)C(F)(F)F)c(=O)c4ccccc34)[nH]c2cc1OCC(F)F [Compound 191, 2-[4-[[5-cyano-6-(2,2-difluoroethoxy)-1H-benzimidazol-2-yl]methyl]-1-oxo-phthalazin-2-yl]-N-[(2S)-3,3,3-trifluoro-2-hydroxypropyl]acetamide] | 11.8 | 66.4 | 0.0367 | 0.0999 |
| N#CC1(COc2cc3nc(Cc4nn(CC(=O)O)c(=O)c5ccccc45)[nH]c3cc2Cl)CC1 [Compound 133, 2-[4-[[5-chloro-6-[(1-cyanocyclopropyl)methoxy]-1H-benzimidazol-2-yl]methyl]-1-oxo-phthalazin-2-yl]acetic acid] | 14.8 | 263 | 0.0333 | 0.267 |
| CC1(COc2cc3[nH]c(Cc4nn(CC(=O)N5CCOCC5)c(=O)c5ccccc45)nc3cc2Cl)CC1 [Compound 163, 4-[[5-chloro-6-[(1-methylcyclopropyl)methoxy]-1H-benzimidazol-2-yl]methyl]-2-(2-morpholino-2-oxo-ethyl)phthalazin-1-one] | 11.6 | 109 | 0.0126 | 0.107 |
| N#Cc1cc2nn(Cc3nn(CC(=O)N4CCOCC4)c(=O)c4ccccc34)cc2cc1OCC(F)F [Compound 205, 5-(2,2-difluoroethoxy)-2-[[3-(2-morpholino-2-oxo-ethyl)-4-oxo-phthalazin-1-yl]methyl]indazole-6-carbonitrile] | 13200 | 7680 | 2.64 | 9.07 |
| CC(=O)N1CCCC1Cn1nc(Cc2nc3cc(Cl)c(OC(F)(F)F)cc3[nH]2)c2ccccc2c1=O (centres unmarked) [compound 14, 2-[(1-acetylpyrrolidin-2-yl)-methyl]-4-[[5-chloro-6-(tri-fluoromethoxy)-1H-benzimidazol-2-yl]methyl]-phthalazin-1-one] | 615 | 4950 | 1.45 | 10 |
| CN(CC1CC1)C(=O)Cn1nc(Cc2nc3cc(C#N)c(OCC(F)F)cc3[nH]2)c2ccccc2c1=O [Compound 196, 2-[4-[[5-cyano-6-(2,2-difluoroethoxy)-1H-benzimidazol-2-yl]methyl]-1-oxo-phthalazin-2-yl]-N-(cyclopropylmethyl)-N-methyl-acetamide] | 15.7 | 83.1 | 0.0272 | 0.445 |
